Data: patent publication US10517889B2, “Modulators of SMAD7 expression” (Ionis Pharmaceuticals, Inc., priority 2017, dated 2019)
Strand notation (5' to 3'): a small letter for the sugar, then the base; units joined by * are phosphorothioate-linked, units joined directly phosphodiester-linked; [ ] holds rarer units or linkages, { } end groups; capitals alone tell only the bases. k = constrained ethyl (cEt); [5mC] = 5-methylcytosine; d = 2'-deoxy (DNA)

Each substance was assayed on human SMAD7 mRNA (assay: Antisense inhibition of human SMAD7 mRNA expression in Hep3B cells by 3-10-3 cEt gapmers, 10,000 nM, electroporation (Example 2)). Conditions: Hep3B cells, electroporation with 10,000 nM antisense oligonucleotide, approximately 24 hours, SMAD7 mRNA by RT-PCR (RTS5062), relative to untreated control cells.
Assay type: cell-based
Method in brief: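 Hep3B cells (20,000/well) were electroporated with 10,000 nM 3-10-3 cEt gapmer (16-mer, phosphorothioate, 5-methylcytosines) and harvested after about 24 h. SMAD7 mRNA quantified by RT-qPCR with primer probe set RTS5062, normalized to total RNA by RiboGreen; percent inhibition relative to untreated cells.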

Row | Substance | % Inhibition
1 | 830164 (antisense kG*k[5mC]*kT*dG*d[5mC]*dT*dT*dG*dG*d[5mC]*d[5mC]*dT*dT*kA*k[5mC]*k[5mC]) [compound 830164] | 38%
2 | 830165 (antisense kA*k[5mC]*kA*dG*d[5mC]*dT*dG*dT*dA*d[5mC]*d[5mC]*dA*dG*kG*kG*k[5mC]) [compound 830165] | 58%
3 | 830166 (antisense k[5mC]*kA*k[5mC]*dA*dG*d[5mC]*dT*dG*dT*dA*d[5mC]*d[5mC]*dA*kG*kG*kG) [compound 830166] | 48%
4 | 830167 (antisense kT*kT*kT*dA*d[5mC]*dA*d[5mC]*dA*d[5mC]*d[5mC]*d[5mC]*d[5mC]*dA*kG*kG*kG) [compound 830167] | 39%
5 | 830169 (antisense k[5mC]*kT*k[5mC]*dT*dG*dT*dT*dT*dG*dG*dA*d[5mC]*dA*kA*kG*kT) [compound 830169] | 58%
6 | 830171 (antisense kT*kG*k[5mC]*dT*d[5mC]*dT*dG*dT*dT*dT*dG*dG*dA*k[5mC]*kA*kA) [compound 830171] | 26%
7 | 830172 (antisense k[5mC]*kT*kG*d[5mC]*dT*d[5mC]*dT*dG*dT*dT*dT*dG*dG*kA*k[5mC]*kA) [compound 830172] | 27%
8 | 830173 (antisense kA*kG*kA*dG*dG*dT*dG*dT*dT*dT*d[5mC]*d[5mC]*dA*kA*kG*kG) [compound 830173] | 48%
9 | 830174 (antisense kG*kA*kG*dA*dG*dG*dT*dG*dT*dT*dT*d[5mC]*d[5mC]*kA*kA*kG) [compound 830174] | 49%
10 | 830175 (antisense kT*k[5mC]*kT*d[5mC]*dA*dA*d[5mC]*dA*dG*dA*d[5mC]*d[5mC]*dA*k[5mC]*kA*k[5mC]) [compound 830175] | 44%
11 | 830176 (antisense kA*kT*kT*d[5mC]*dT*d[5mC]*dA*dA*d[5mC]*dA*dG*dA*d[5mC]*k[5mC]*kA*k[5mC]) [compound 830176] | 61%
12 | 830177 (antisense k[5mC]*kA*kG*d[5mC]*d[5mC]*d[5mC]*dT*dT*dT*d[5mC]*dA*d[5mC]*d[5mC]*k[5mC]*k[5mC]*kT) [compound 830177] | 40%
13 | 830178 (antisense kA*k[5mC]*kG*dA*d[5mC]*dA*dG*d[5mC]*d[5mC]*dT*dG*dG*dA*kG*kA*k[5mC]) [compound 830178] | 32%
14 | 830179 (antisense kT*kT*kT*dA*d[5mC]*dT*dG*d[5mC]*dA*dT*dT*d[5mC]*d[5mC]*kG*kG*k[5mC]) [compound 830179] | 51%
15 | 830181 (antisense kG*k[5mC]*kG*dG*d[5mC]*dT*dT*d[5mC]*d[5mC]*dT*dG*dT*dG*k[5mC]*k[5mC]*k[5mC]) [compound 830181] | 10%
16 | 830182 (antisense kG*kT*kG*dT*d[5mC]*d[5mC]*dT*dT*d[5mC]*dA*dG*dA*dA*k[5mC]*kA*k[5mC]) [compound 830182] | 0%
17 | 830183 (antisense k[5mC]*kG*kG*dT*dT*dG*d[5mC]*d[5mC]*dT*d[5mC]*dA*dT*d[5mC]*k[5mC]*kT*kG) [compound 830183] | 47%
18 | 830184 (antisense kA*k[5mC]*kG*dG*dT*dT*dG*d[5mC]*d[5mC]*dT*d[5mC]*dA*dT*k[5mC]*k[5mC]*kT) [compound 830184] | 48%
19 | 830185 (antisense kG*k[5mC]*k[5mC]*dA*d[5mC]*d[5mC]*dA*dA*d[5mC]*dG*dG*dT*dT*kG*k[5mC]*k[5mC]) [compound 830185] | 27%
20 | 830186 (antisense kA*kG*kG*dT*d[5mC]*d[5mC]*dA*dG*dG*dG*dT*d[5mC]*d[5mC]*kT*k[5mC]*k[5mC]) [compound 830186] | 50%
21 | 830187 (antisense kA*kT*kT*dA*d[5mC]*d[5mC]*d[5mC]*dT*dG*d[5mC]*dT*d[5mC]*dA*kT*kG*kA) [compound 830187] | 31%
22 | 830188 (antisense k[5mC]*k[5mC]*kA*d[5mC]*dT*dT*dA*dG*d[5mC]*dA*dA*dG*dG*kA*kG*k[5mC]) [compound 830188] | 50%

Row | Substance | % Inhibition
23 | 830189 (antisense kT*kT*kG*dG*dA*dG*d[5mC]*dA*dA*d[5mC]*dA*d[5mC]*d[5mC]*kA*kG*kA) [compound 830189] | 49%
24 | 830190 (antisense kT*kA*kA*dT*d[5mC]*dA*dG*dA*dT*dG*d[5mC]*d[5mC]*dT*kG*k[5mC]*kT) [compound 830190] | 39%
25 | 830191 (antisense k[5mC]*kT*kA*dA*dT*d[5mC]*dA*dG*dA*dT*dG*d[5mC]*d[5mC]*kT*kG*k[5mC]) [compound 830191] | 47%
26 | 830192 (antisense kA*k[5mC]*kT*dA*dA*dT*d[5mC]*dA*dG*dA*dT*dG*d[5mC]*k[5mC]*kT*kG) [compound 830192] | 41%
27 | 830193 (antisense k[5mC]*kT*kT*dT*dT*d[5mC]*d[5mC]*dG*dG*dT*dA*dT*dT*kT*kT*k[5mC]) [compound 830193] | 35%
28 | 830194 (antisense k[5mC]*k[5mC]*kT*dT*dT*dT*d[5mC]*d[5mC]*dG*dG*dT*dA*dT*kT*kT*kT) [compound 830194] | 49%
29 | 830195 (antisense kA*kA*k[5mC]*d[5mC]*dT*dT*dT*dT*d[5mC]*d[5mC]*dG*dG*dT*kA*kT*kT) [compound 830195] | 35%
30 | 830196 (antisense kT*kT*kA*dA*dT*dG*dG*d[5mC]*d[5mC]*d[5mC]*dA*dG*d[5mC]*k[5mC]*k[5mC]*kA) [compound 830196] | 31%
31 | 830197 (antisense kG*kT*kT*dA*dA*dT*dG*dG*d[5mC]*d[5mC]*d[5mC]*dA*dG*k[5mC]*k[5mC]*k[5mC]) [compound 830197] | 31%
32 | 830198 (antisense kA*kG*kG*d[5mC]*dT*dA*d[5mC]*dA*d[5mC]*d[5mC]*dA*dA*dA*kG*kA*k[5mC]) [compound 830198] | 30%
33 | 830199 (antisense kA*kA*kG*dG*d[5mC]*dT*dA*d[5mC]*dA*d[5mC]*d[5mC]*dA*dA*kA*kG*kA) [compound 830199] | 37%
34 | 830200 (antisense kG*kA*kA*dG*dG*d[5mC]*dT*dA*d[5mC]*dA*d[5mC]*d[5mC]*dA*kA*kA*kG) [compound 830200] | 33%
35 | 830201 (antisense k[5mC]*kT*kG*dA*dA*dG*dG*d[5mC]*dT*dA*d[5mC]*dA*d[5mC]*k[5mC]*kA*kA) [compound 830201] | 37%
36 | 830202 (antisense kT*k[5mC]*kT*dG*dA*dA*dG*dG*d[5mC]*dT*dA*d[5mC]*dA*k[5mC]*k[5mC]*kA) [compound 830202] | 50%
37 | 830203 (kG*k[5mC]*kT*d[5mC]*dT*dG*dA*dA*dG*dG*d[5mC]*dT*dA*k[5mC]*kA*k[5mC]; antisense) [compound 830203] | 40%
38 | 830204 (kG*kT*kA*dT*d[5mC]*d[5mC]*dA*dT*d[5mC]*dA*dA*d[5mC]*dT*kG*k[5mC]*kT; antisense) [compound 830204] | 59%
39 | 830205 (kG*kA*k[5mC]*dT*d[5mC]*dA*dT*d[5mC]*dA*dG*dG*d[5mC]*dA*kT*kT*k[5mC]; antisense) [compound 830205] | 26%
40 | 830206 (kT*kG*kA*d[5mC]*dT*d[5mC]*dA*dT*d[5mC]*dA*dG*dG*d[5mC]*kA*kT*kT; antisense) [compound 830206] | 51%
41 | 830209 (kA*k[5mC]*k[5mC]*dG*dG*dA*dA*dG*dT*d[5mC]*dT*dT*dG*kT*kA*kT; antisense) [compound 830209] | 31%
42 | 830210 (kG*kA*k[5mC]*d[5mC]*dG*dG*dA*dA*dG*dT*d[5mC]*dT*dT*kG*kT*kA; antisense) [compound 830210] | 29%
43 | 830211 (kA*kG*kA*d[5mC]*d[5mC]*dG*dG*dA*dA*dG*dT*d[5mC]*dT*kT*kG*kT; antisense) [compound 830211] | 30%
44 | 830212 (kG*k[5mC]*kA*dG*dG*dG*dT*dG*dG*dA*dG*dA*d[5mC]*k[5mC]*kG*kG; antisense) [compound 830212] | 43%
